How the values were obtained:
[1] = test system: human PSC-derived engineered NK cells; assay: effect of UM171 on NK differentiation (Step 2); assay type: cell-based; conditions: 35 nM UM171 versus no UM171
Description: FIGS. 2A-2C are bar graphs illustrating the cell yield (FIG. 2A), percentage of CD56+CD45^+ cells (FIG. 2B), and cell viability (FIG. 2C) resulting from the method of producing human PSC-derived engineered NK cells (FcR-UDC I-NK cells) described herein.
Parental and engineered UDC PSCs (collectively, “PSCs”) were thawed, expanded, and cultured in mTeSR™ (STEMCELL Technologies, Cambridge, MA) feeder-free, animal component-free media for up to seven days on vitronectin. The PSCs were dissociated into single cells and transferred into microwell plates and cultured in STEMdiff™ APEL™2 and Gibco® PFHM-II media (STEMCELL Technologies, Cambridge, MA; ThermoFisher Scientific, Waltham, MA) for fourteen days to differentiate into precursor cells (via embryoid bodies) capable of differentiating to hematopoietic cell types, endothelial cell types, and/or mesodermal derivatives. The media was supplemented with BMP4 (20 ng/ml), VEGF (20 ng/ml), and SCF (40 ng/ml). Half media changes were performed every other day starting on day 3. The embryoid bodies were replated on DLL4/Retronectin-coated T75 flasks to differentiate into NK cells. The embryoid bodies were cultured under feeder free conditions in differentiation media comprising SCF (20 ng/ml), IL-7 (20 ng/ml), IL-15 (10 ng/ml), Flt3L (10 ng/mL), IL-3 ([…]) and 35 nM UM171 for 21 days in modified DMEM/F12. […]

claudin 6 (CLDN6) = target: T1, claudin 6 (CLDN6) (UniProt P56747); assay: cell-based or functional assay
T1 sequence (looked up): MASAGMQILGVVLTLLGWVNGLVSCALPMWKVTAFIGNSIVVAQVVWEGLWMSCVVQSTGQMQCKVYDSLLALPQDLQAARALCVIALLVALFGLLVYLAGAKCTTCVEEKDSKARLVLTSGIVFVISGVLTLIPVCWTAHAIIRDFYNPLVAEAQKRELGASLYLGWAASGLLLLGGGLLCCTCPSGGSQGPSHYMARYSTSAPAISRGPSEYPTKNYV

[2] = test system: Raji (Burkitt's lymphoma) cells; assay: Raji i.p. tumor model, study of FIG. 23 (Table 2); assay type: in vivo, NSG mice; conditions: single agent alone, compared to untreated
Experimental: FIG. 23 is a graphic of an efficacy study of FcR-UDC I-NK cells plus Rituximab in a Raji i.p. tumor model. NSG mice were irradiated and injected (i.p.) with Raji tumor cells (3×10^5). At day 4, FcR-UDC I-NK cells or PB-NK cells (each 5×10^6) with or without Rituximab (300 μg) was administered. At day 7, an additional dose of Rituximab (300 μg) was administered. Imaging/monitoring of the NSG mice occur at indicated time points through day 120.
FIGS. 24A-24C illustrate (FIG. 24A) a survival curve and (FIGS. 24B-24C) tumor burden following the efficacy study of FIG. 23. […] In FIGS. 24B-24C, FcR-UDC I-NK cells plus Rituximab and PB-NK plus Rituximab provided a durable response in delaying tumor onset through day 60 in 50% of the mice.
The efficacy of the UDC-NK cells against tumors in vivo was studied in a Raji intraperitoneal (i.p.) tumor model.
In FIG. 23, NSG mice were irradiated and injected i.p. with Raji (Burkitt's lymphoma) cells (3×10^5 cells). Raji cells are resistant to NK cells in the absence of an anti-CD20 antibody. At day four, 5×10^6 FcR-UDC I-NK cells and/or Rituximab (300 μg) was administered to the NSG mice. At day 7, a second dose of Rituximab (300 μg) was administered. […] The NSG mice were imaged and assessed for survival, BLI (tumor burden), and body weight and other health conditions at various days through day 121. […]

For `Br.Br.Cn1nnc(-c2ccc3c(c2)[nH]c2nc(Cc4ccccc4)nc(N[C@H]4CC[C@H](N)CC4)c23)n1.O.O` [UM171, (1r,4r)-N1-(2-benzyl-7-(2-methyl-2H-tetrazol-5-yl)-9H-pyrimidol [4,5-b]indol-4-yl)cyclohexane-1,4-diamine dihydrobromide dihydrate], the “UDC-NK cell yield during NK differentiation” value [1] was “improved UDC-NK cell yield”.

For ASP1893 mAb (antibody), the EC50 of ADCC (specific lysis of PA-1 cells by FcR-UDC I-NK cells, four-hour flow-based assay, antibody titrated) (claudin 6 (CLDN6)) was 4.32 ng/mL.

In the case of Rituximab, the mean survival [2] is reported as “increased mean survival”.

B1: ASP1650 (antibody, from another filing, V domains shown)
VH: EVQLQQSGPELVKPGASMKISCKASGYSFTGYTMNWVKQSHGKNLEWIGLINPYNGGTIYNQKFKGKATLTVDKSSSTAYMELLSLTSEDSAVYYCARDYGFVLDYWGQGTTLTVSS
VL: IVLTQSPAIMSASPGEKVTITCSASSSVSYLHWFQQKPGTSPKLWVYSTSNLPSGVPARFGGSGSGTSYSLTISRMEAEDAATYYCQQRSIYPPWTFGGGTKLEIKR
With B1 the EC50 of ADCC (specific lysis of PA-1 cells by FcR-UDC I-NK cells, four-hour flow-based assay, antibody titrated) (claudin 6 (CLDN6)) was 8.49 ng/mL.

Reference: patent US20260209705A1, “ENGINEERED NATURAL KILLER CELLS AND RELATED METHODS” (ASTELLAS PHARMA INC., priority 2022, published 2026)
